Assay results reported in US9598412B2, “Spiroindoline compounds for use as anthelminthics” (Intervet, Inc., priority 2010, dated 2017).
Like-named read-outs stand apart in the source and are kept apart here.

Tested on: Haemonchus contortus
Assay: Efficacy against Haemonchus contortus in jirds
Assay type: in vivo
Conditions: 72 h, jirds (Meriones unguiculatus), necropsy three days after treatment, read-out: reduction of the Haemonchus contortus count (mean larvae count in stomach vs untreated control group)
Procedure: Compounds according to this invention (numbers refer to the compound number in Table 1) were tested in vivo using Haemonchus contortus in jirds (Meriones unguiculatus). The jirds were orally infected with approximately 750-3.000 third-stage larvae of Haemonchus contortus. Ten days after infection, the jirds in the treatment groups were treated once either orally or subcutaneously with compounds at a dose of 10 mg or 50 mg per kg bodyweight. Three days after treatment, the jirds were necropsied, and the larvae burden in the stomach was determined. During the study no side-effects in jirds were observed. The efficacy was defined as the reduction of the mean larvae count in the infected jirds of the treatment group in comparison to the infected jirds in an untreated control group (negative control).

[1] = po, treated once orally at 50 mg/kg bw ten days after infection
[2] = sc, treated once subcutaneously at 50 mg/kg bw ten days after infection
[3] = po, treated once orally at 10 mg/kg ten days after infection

| Structure (SMILES) | inhibition in vivo at 50 mg/kg [2] [%] | inhibition in vivo at 10 mg/kg [3] [%] | further results |
| --- | --- | --- | --- |
| O=C(c1ccnc(Cl)c1)N1CC2(CCN(C/C=C/c3ccc(F)cc3F)CC2)c2cc(C(F)(F)F)ccc21 [Compound 12] | – | – | inhibition in vivo at 50 mg/kg [1]: ≥ 50% |
| O=C(c1ccnc(Cl)c1)N1CC2(CCN(C/C=C/c3ccc(F)cc3F)CC2)c2c(Cl)cc(Cl)cc21 [Compound 19] | – | – | inhibition in vivo at 50 mg/kg [1]: ≥ 50% |
| O=C(c1ccnc(Cl)c1)N1CC2(CCN(C/C=C/c3ccc(F)cc3F)CC2)c2c1ccc(Cl)c2Cl [Compound 20] | ≥ 50 | – | – |
| O=C(c1ccnc(Cl)c1)N1CC2(CCN(C/C=C/c3cccc(Cl)c3Cl)CC2)c2cc(Cl)ccc21 [Compound 25, [5-chloro-1′-[(E)-3-(2,3-dichlorophenyl)allyl]spiro[indoline-3,4′-piperidine]-1-yl]-(2-chloro-4-pyridyl)methanone] | ≥ 50 | – | – |
| O=C(c1ccnc(Cl)c1)N1CC2(CCN(C/C=C/c3ccc(Cl)c(Cl)c3)CC2)c2cc(Cl)ccc21 [Compound 27] | ≥ 50 | – | – |
| O=C(c1ccnc(Cl)c1)N1CC2(CCN(C/C=C/c3ccc(Cl)cc3)CC2)c2cc(C(F)(F)F)ccc21 [Compound 42] | – | ≥ 50 | – |
| Cc1ccc2c(c1)C1(CCN(C/C=C/c3ccc(Cl)c(Cl)c3)CC1)CN2C(=O)c1ccnc(Cl)c1 [Compound 71] | – | – | inhibition in vivo at 10 mg/kg (sc, treated once subcutaneously at 10 mg/kg ten days after infection): ≥ 50% |
| O=C(c1ccnc(Cl)c1)N1CC2(CCN(C/C=C/c3ccc(Cl)c(Cl)c3)CC2)c2cc(SC(F)(F)F)ccc21 [Compound 77] | – | ≥ 50 | – |
| Cc1ccc2c(c1)C1(CCN(C/C=C/c3ccc(Cl)cc3F)CC1)CN2C(=O)c1ccnc(Cl)c1 [Compound 87] | – | ≥ 50 | – |
